From patent US9545387B2, “Composition and kit comprising piperazine derivatives and metformin, and use thereof in the treatment of diabetes” (METABOLYS, priority 2012, dated 2017)

Columns and labels:
[1] = oral glucose tolerance test (OGTT) in normal Swiss mice fasting for 17 hours, additive effect with metformin; type: in vivo; details: compound 2 50 mg/kg per os, metformin 300 mg/kg per os
[2] = test system: liver cells of rats fasting for 48 h; assay: metabolism of lactate and glutamine in liver cells of rats fasting for 48 h; type: cell-based, rat
Procedure: […] Enzymatic assay of the consumption of lactate and glutamine was performed, the production of their metabolites was also analysed. Finally the ATP cell concentration was determined.
Complete oxidation of a substrate was measured by the lowest CO2 value produced from one of its carbons. As a result, this carbon is found in greater quantity in non-volatile products (other than CO2) formed during the metabolism of this substrate.
Complete oxidation of lactate can therefore be determined by measuring the production of 13CO2 from 2-13C-lactate.
Complete oxidation of glutamine can be examined by measuring the production of 13CO2 from 3-13C-glutamine (Biochem. J., 2004, 378, 485-495).

[3] = glycaemia and circulating insulin before and after a glucose load in STZ-N0a rats; type: in vivo; details: for Glycaemia, Time −60 mn / Insulin, Time −60 mn: time −60 min; for Glycaemia, Time 0 mn / Insulin, Time 0 mn: time 0 min; for Glycaemia, Time 30 mn / Insulin, Time 30 mn: time 30 min; for Glycaemia, Time 60 mn / Insulin, Time 60 mn: time 60 min; for Glycaemia, Time 90 mn / Insulin, Time 90 mn: time 90 min; for Glycaemia, Time 120 mn / Insulin, Time 120 mn: time 120 min
Text: An increase in insulin secretion was noted solely when compound 2 caused an increases in the peripheral consumption of glucose by skeletal muscle (Tables 9 to 12 which give a mean of the results obtained). […] It is shown in Tables 11 and 12 that if there is no increase in muscle consumption of glucose, there is no increase in the level of circulating insulin.

[4] = 5 mM 2-13C-lactate + 0.5 mM compound 2, n = 4
[5] = 5 mM 3-13C-glutamine + 0.5 mM compound 2, n = 4
[6] = 5 mM glutamine + 2 mM compound 2, n = 6
[7] = 5 mM lactate + 0.5 mM compound 2, n = 3
[8] = 5 mM lactate + 2 mM compound 2, n = 6
[9] = Table 11, compound 2, title 25 mg/kg (row prints 200 mg/kg)
[10] = Table 12, compound 2, title 25 mg/kg (row prints 200 mg/kg)

With `O=C(O)CCC(=O)c1ccc(OCCN2CCN(c3ccccn3)CC2)cc1` [Compound 2] as the molecule, how does the “Glycaemia, Time −60 mn” value ([1]; Table 2, OGTT, given 1 h before glucose load, time −60 min) read?
The value was 4.6 ± 0.4 mM/liter.

What about the “Glycaemia, Time 0 mn” value ([1]; Table 2, OGTT, time 0 min) of the same molecule?
Its value is 4.9 ± 0.2 mM/liter.

And the “Glycaemia, Time 30 mn” value ([1]; Table 2, OGTT, time 30 min)?
Its value is 14.5 ± 1.4 mM/liter.

What about the “Glycaemia, Time 60 mn” value ([1]; Table 2, OGTT, time 60 min) of the same molecule?
The value was 10.4 ± 0.5 mM/liter.

And the “Glycaemia, Time 90 mn” value ([1]; Table 2, OGTT, time 90 min)?
The value was 8.3 ± 1.1 mM/liter.

What about the “Glycaemia, Time 120 mn” value ([1]; Table 2, OGTT, time 120 min) of the same molecule?
The value was 6.8 ± 0.6 mM/liter.

What about the “drop of glycaemia area under curve after glucose load” value ([1]; study 2) of the same molecule?
The value was 40.5%.

And the “reduction of the consumption of lactate” value ([2]; 5 mM 2-13C-lactate + 0.5 mM compound 2)?
The value was 10%.

What about the 13CO2 production [2, 4] of the same molecule?
The 13CO2 production was 5.99 ± 0.09 μmoles/flask.

What about the ATP concentration [2, 4] of the same molecule?
The ATP concentration was 188.4 ± 25.2 nanomoles per 6 precisely cut liver section.

And the Glucose production [2, 4]?
The Glucose production was 4.69 ± 0.14 μmoles/flask.

And the ATP concentration [2, 5]?
The ATP concentration was 362.9 ± 53.3 (NS) nanomoles per 6 precisely cut liver sections.

And the Glucose production [2, 5]?
Its Glucose production is 6.05 ± 0.30 μmoles/flask.

What about the “Production of 13CO2” value [2, 5] of the same molecule?
Its value is 1.86 ± 0.28 μmoles/flask.

And the ATP concentration ([2]; 5 mM glutamine + 2 mM compound 2)?
Its ATP concentration is 34.2 ± 7.6 nanomoles per 2 precisely cut liver sections.

What about the Complete oxidation ([2]; 5 mM glutamine + 2 mM compound 2, consumption of glutamine − (2 * glucose + pyruvate + lactate + alanine + glutamate products)) of the same molecule?
The Complete oxidation was 0.59 ± 0.35* μmoles/flask.

What about the “Consumption of substrate (—)” value [2, 6] of the same molecule?
Its value is −2.77 ± 0.15 μmoles/flask.

And the Glucose production [2, 6]?
Its Glucose production is 0.78 ± 0.09 μmoles/flask.

What about the “Sum of labelling of non-volatile products from lactate metabolism, 1-13C-lactate” value [2, 7] of the same molecule?
Its value is 1.36 ± 0.09*+ μmoles of carbon 13/flask.

And the “Sum of labelling of non-volatile products from lactate metabolism, 2-13C-lactate” value [2, 7]?
The value was 4.94 ± 0.15 μmoles of carbon 13/flask.

And the “Sum of labelling of non-volatile products from lactate metabolism, 3-13C-lactate” value [2, 7]?
The value was 4.06 ± 0.15*+ μmoles of carbon 13/flask.

And the ATP concentration ([2]; 5 mM lactate + 2 mM compound 2)?
The ATP concentration was 31.8 ± 8.0 nanomoles per 2 precisely cut liver sections.

What about the Complete oxidation ([2]; 5 mM lactate + 2 mM compound 2, consumption of lactate − (2 * glucose + pyruvate + alanine products)) of the same molecule?
The Complete oxidation was 0.64 ± 0.30* μmoles/flask.

And the NADH mitochondrial transport ([2]; 5 mM lactate + 2 mM compound 2, lactate consumption minus twice glucose production)?
The NADH mitochondrial transport was 1.06 ± 0.33 μmoles/flask.

And the “Consumption of substrate (—)” value [2, 8]?
Its value is −2.59 ± 0.34 μmoles/flask.

And the Glucose production [2, 8]?
The Glucose production was 0.76 ± 0.13 μmoles/flask.

What about the “Glycaemia AUC” value ([3]; Table 9, compound 2 200 mg/kg) of the same molecule?
Its value is 356.

What about the “Glycaemia, Time −60 mn” value ([3]; Table 9, compound 2 200 mg/kg, glucose load at 0 min) of the same molecule?
Its value is 4.75 mmol/L.

What about the “Glycaemia, Time 0 mn” value ([3]; Table 9, compound 2 200 mg/kg) of the same molecule?
Its value is 8.75 mmol/L.

What about the “Glycaemia, Time 30 mn” value ([3]; Table 9, compound 2 200 mg/kg) of the same molecule?
The value was 12.97 mmol/L.

What about the “Glycaemia, Time 60 mn” value ([3]; Table 9, compound 2 200 mg/kg) of the same molecule?
Its value is 13.15 mmol/L.

What about the “Glycaemia, Time 90 mn” value ([3]; Table 9, compound 2 200 mg/kg) of the same molecule?
Its value is 11.37 mmol/L.

What about the “Glycaemia, Time 120 mn” value ([3]; Table 9, compound 2 200 mg/kg) of the same molecule?
The value was 10.13 mmol/L.

What about the “Insulin, Time −60 mn” value ([3]; Table 10, compound 2 200 mg/kg, circulating insulin) of the same molecule?
The value was 0.47 ng/mL.

What about the “Insulin, Time 0 mn” value ([3]; Table 10, compound 2 200 mg/kg) of the same molecule?
Its value is 0.41 ng/mL.

What about the “Insulin, Time 30 mn” value ([3]; Table 10, compound 2 200 mg/kg) of the same molecule?
Its value is 0.70 ng/mL.

And the “Insulin, Time 60 mn” value ([3]; Table 10, compound 2 200 mg/kg)?
The value was 0.59 ng/mL.

What about the “Insulin, Time 90 mn” value ([3]; Table 10, compound 2 200 mg/kg) of the same molecule?
Its value is 0.54 ng/mL.

And the “Insulin, Time 120 mn” value ([3]; Table 10, compound 2 200 mg/kg)?
Its value is 0.53 ng/mL.

What about the “Glycaemia AUC” value [3, 9] of the same molecule?
Its value is 1048.

What about the “Glycaemia, Time 0 mn” value [3, 9] of the same molecule?
Its value is 5.23 mmol/L.

What about the “Glycaemia, Time 30 mn” value [3, 9] of the same molecule?
Its value is 11.15 mmol/L.

And the “Glycaemia, Time 60 mn” value [3, 9]?
Its value is 16.21 mmol/L.

What about the “Glycaemia, Time 90 mn” value [3, 9] of the same molecule?
The value was 14.36 mmol/L.

What about the “Glycaemia, Time 120 mn” value [3, 9] of the same molecule?
Its value is 15.33 mmol/L.

What about the “Glycaemia, Time −60 mn” value [3, 9] of the same molecule?
The value was 5.12 mmol/L.

What about the “Insulin, Time 0 mn” value [3, 10] of the same molecule?
The value was 1.41 ng/mL.

What about the “Insulin, Time 30 mn” value [3, 10] of the same molecule?
Its value is 1.76 ng/mL.

And the “Insulin, Time 60 mn” value [3, 10]?
The value was 1.48 ng/mL.

What about the “Insulin, Time 90 mn” value [3, 10] of the same molecule?
The value was 1.61 ng/mL.

What about the “Insulin, Time 120 mn” value [3, 10] of the same molecule?
Its value is 1.61 ng/mL.

What about the “Insulin, Time −60 mn” value [3, 10] of the same molecule?
The value was 1.11 ng/mL.
